# Data from patent US20250288704A1, “CXCR4-LIGANDS FOR DIAGNOSTIC AND THERAPEUTIC USE AND PRECURSORS THEREOF” (priority 2021, published 2025).
# Positions of bridges follow the written chain, without caps; N, C: chain ends. Non-standard residues stand in square brackets, D forms with d. Residues, ends and D or L forms follow the SMILES beside them. Groups on a side chain read outwards from the residue. Chains are numbered I, II in the order given. *: point of attachment. X2 = OC[C@H]1O[C@@H](O[C@H]2[C@H](O)[C@@H](O)[C@H](*)O[C@@H]2CO)[C@H](O)[C@@H](O)[C@H]1O; X3 = OCC1OC(OC2C(CO)OC(*)C(O)C2O)C(O)C(O)C1O; 2Nal = N[C@@H](Cc1ccc2ccccc2c1)C(=O)O; dCit = NC(=O)NCCC[C@@H](N)C(=O)O; dNMeOrn = CN[C@H](CCCN)C(=O)O; d(hCys) = N[C@H](CCS)C(=O)O; HYNIC = NNc1ccc(C(=O)*)cn1; Mercaptoacetyl = O=C(CS)*; X4 = OCC1OC(*)C(O)C(O)C1O; 4Abz = Nc1ccc(C(=O)O)cc1; dDap = NC[C@@H](N)C(=O)O
# Assays:
# [1] = tested on: CXCR4-expressing Chem_1 cells; experiment: Determination of internalization, dual tracer with 125I-Fc-131; type: cell-based; conditions: for Cell-bound [%] / Internalized [%]: of total cellular activity
# How it was run: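 Chem_1 cells grown in DMEM-F12 with 10% FBS at 37 °C; wells (n=3 per time point) received medium or AMD3100 (1 mM stock) to block receptors. Unbound, surface-bound and NaOH-lysed internalized fractions were γ-counted; data corrected for non-specific internalization and referred to standard ligand specific internalization.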
# CXCR4 [2] = molecular target: T1, CXCR4 (Homo sapiens, UniProt P61073); experiment: Determination of inverse IC50 (invIC50): radiolabeled peptide displaced by Fc-131 on Jurkat cells
# Experimental: For in vitro experiments, cells were counted in a hemocytometer using trypan blue as contrast agent. The cell suspension was centrifuged, and the pellet resuspended in HBSS (+1 wt % BSA) to a concentration of 2 mio cells/mL. 8×3 polystyrene tubes were loaded with 25 μL of the standard ligand ^125I-Fc-131 (see 4.1, 1.00 nM in HBSS) and 25 μL of the ligand to investigate in the respective concentration (10^−4-10^−10 M, n=3 for each concentration). 200 μL of cell suspension (400.000 cells per well) were added to obtain a final peptide concentration range of 10^−5-10^−11 M. The tubes were cooled for 2 h at 8° C. to prevent internalization. The experiment was stopped by removal of the supernatant. 200 μL HBSS were added onto the cells, the suspension centrifuged, and the supernatant pooled with the respective first fractions. This step was repeated once more before the tubes containing the supernatants and the ones containing the cell pellets were subjected to activity measurement in the γ-counter.
# For the determination of inverse IC50 (invIC50) values the protocol for the determination of regular IC50 values was resumed with minor changes. The peptide under investigation was radioactively labeled and a stock solution was prepared in HBSS (2.00 nM). A concentration gradient of the standard ligand Fc-131 was prepared in HBSS (10^−4-10^−10 M). A cell tube was then containing 25 μL of the radioactive peptide solution, 25 μL of the respective Fc-131 solution and 200 μL cell suspension (400.000 cells). The experiment was conducted as described above.
# [3] = Octanol/PBS partition coefficient (logD7.4); type: physicochemical; conditions: n-octanol/PBS pH 7.4, radiolabeled compound
# Experimental: The tubes were vortexed at maximum speed for 3 min to ensure equilibrium before centrifugation at 15.000×g for 5 min on a Biofuge 15 from Heraeus Holding GmbH (Osterode, Germany). An aliquot of 100 μL of each fraction was measured in the γ-counter and the log D7.4 calculated as follows: […]
# CXCR4 [4] = molecular target: T1, CXCR4; experiment: Determination of IC50: competition with 125I-Fc-131 on CXCR4-positive Jurkat cells; type: binding; design: CXCR4-positive Jurkat T lymphocyte cells were grown in Gibco's RPMI 1640 GlutaMAX medium; endogenous in cells; host or cells: Jurkat T lymphocyte cells (whole cells in suspension, 400.000 per tube);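 note: test compound at 10^−5 to 10^−11 M competed for 2 h at 8 °C with the radioligand on 400,000 cells per well, bound versus free activity measured by γ-counting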
# [5] = Biodistribution in Jurkat tumor-bearing CB-17 SCID mice; type: in vivo; conditions: female, CB-17 SCID, mouse, in vivo, iv, total radioactivity
# How it was run: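 CB17-SCID mice bore subcutaneous Jurkat xenografts (2-3×10^7 cells in Matrigel, shoulder), used at 5-8 mm tumor diameter. About 0.5-20 MBq (0.02-0.20 nmol) of 125I-, 177Lu-, 99mTc-, 18F- or 68Ga-labeled ligand given by tail vein; organs weighed and γ-counted after set times.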
# T1 sequence (P61073 whole entry): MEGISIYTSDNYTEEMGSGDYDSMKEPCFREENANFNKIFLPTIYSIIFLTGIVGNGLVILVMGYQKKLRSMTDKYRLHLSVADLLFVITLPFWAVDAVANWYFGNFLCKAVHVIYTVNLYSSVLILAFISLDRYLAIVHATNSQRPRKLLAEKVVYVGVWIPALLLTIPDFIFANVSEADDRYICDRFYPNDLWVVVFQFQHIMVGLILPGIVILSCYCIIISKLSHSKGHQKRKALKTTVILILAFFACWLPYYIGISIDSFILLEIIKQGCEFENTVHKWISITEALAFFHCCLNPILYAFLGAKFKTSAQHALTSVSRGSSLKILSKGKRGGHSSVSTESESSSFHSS
SMILES,Internalized in relation to 125I-Fc-131 [%] ([1]; 30 min),Cell-bound [%] ([1]; 30 min),Internalized [%] ([1]; 30 min),Internalization [% Fc-131] ([1]; 90 min),Internalized in relation to 125I-Fc-131 [%] ([1]; 90 min),Cell-bound [%] ([1]; 90 min),IC50 (CXCR4 [2]),logD7.4 [3],tissue uptake at 1 h ([5]; % iD/g Blood),tissue uptake at 1 h ([5]; % iD/g Bone),tissue uptake at 1 h ([5]; % iD/g Heart),tissue uptake at 1 h ([5]; % iD/g Intestine),tissue uptake at 1 h ([5]; % iD/g Kidney),tissue uptake at 1 h ([5]; % iD/g Liver),tissue uptake at 1 h ([5]; % iD/g Lung),tissue uptake at 1 h ([5]; % iD/g Muscle),tissue uptake at 1 h ([5]; % iD/g Pancreas),tissue uptake at 1 h ([5]; % iD/g Spleen),tissue uptake at 1 h ([5]; % iD/g Stomach),tissue uptake at 1 h ([5]; % iD/g Tumor),further results
C[C@@H](NC(=O)[C@@H](CCCNC(=N)N)NC(=O)[C@@H](CN)NC(=O)[C@@H](CO)NC(=O)[C@@H](CO)NC(=O)[C@@H](CO)NC(=O)CS)C(=O)Nc1ccc(C(=O)NCCC[C@@H]2C(=O)N[C@@H](CCCNC(=N)N)C(=O)N[C@@H](Cc3ccc4ccccc4c3)C(=O)NCC(=O)N[C@H](Cc3ccc(O)cc3)C(=O)N2C)cc1 [Tc-CXCR4-6] (I: Mercaptoacetyl-[dS][dS][dS][dDap][dR][dA][4Abz] / II: cyclo([dY][dNMeOrn]R[2Nal]G); amide I:C-II:2),470 ± 17.4%,6.56 ± 0.31%,17.4 ± 0.40%,525 (90 min) % Fc-131,526 ± 29.0%,6.90 ± 0.29%,3.67 ± 0.77 nM,−1.54 ± 0.02 (6),,,,,,,,,,,,,Internalized [%] ([1]; 90 min): 27.1 ± 0.50%; IC50 (CXCR4 [4]): 4.97 ± 1.34 nM
C[C@@H](NC(=O)[C@@H](CCCNC(=N)N)NC(=O)[C@@H](CN)NC(=O)[C@@H](CCSC1OC(CO)C(O)C(O)C1O)NC(=O)[C@@H](CCSC1OC(CO)C(O)C(O)C1O)NC(=O)[C@@H](CCSC1OC(CO)C(O)C(O)C1O)NC(=O)CS)C(=O)Nc1ccc(C(=O)NCCC[C@@H]2C(=O)N[C@@H](CCCNC(=N)N)C(=O)N[C@@H](Cc3ccc4ccccc4c3)C(=O)NCC(=O)N[C@H](Cc3ccc(O)cc3)C(=O)N2C)cc1 (stereo partly shown) [Tc-CXCR4-9] (I: Mercaptoacetyl-[d(hCys)](X4)[d(hCys)](X4)[d(hCys)](X4)[dDap][dR][dA][4Abz] / II: cyclo([2Nal]G[dY][dNMeOrn]R); amide I:C-II:4),86.4 ± 9.62%,3.69 ± 0.56%,7.00 ± 0.74%,103 (90 min) % Fc-131,103 ± 6.56%,3.69 ± 0.49%,3.5 ± 0.65 nM,−2.56 ± 0.03 (6),1.42 %ID/g,0.47 %ID/g,0.87 %ID/g,1.5 %ID/g,14.8 %ID/g,3.97 %ID/g,2.4 %ID/g,0.24 %ID/g,0.5 %ID/g,1.24 %ID/g,3.51 %ID/g,5.92 %ID/g,Internalized [%] ([1]; 90 min): 12.5 ± 0.67%
C[C@@H](NC(=O)[C@@H](CCCNC(=N)N)NC(=O)[C@@H](CN)NC(=O)[C@@H](CO)NC(=O)[C@@H](CCS[C@@H]1O[C@H](CO)[C@@H](O[C@@H]2O[C@H](CO)[C@H](O)[C@H](O)[C@H]2O)[C@H](O)[C@H]1O)NC(=O)[C@@H](CO)NC(=O)CS)C(=O)Nc1ccc(C(=O)NCCC[C@@H]2C(=O)N[C@@H](CCCNC(=N)N)C(=O)N[C@@H](Cc3ccc4ccccc4c3)C(=O)NCC(=O)N[C@H](Cc3ccc(O)cc3)C(=O)N2C)cc1 [Tc-CXCR4-11] (I: Mercaptoacetyl-[dS][d(hCys)](X2)[dS][dDap][dR][dA][4Abz] / II: cyclo([2Nal]G[dY][dNMeOrn]R); amide I:C-II:4),178 ± 26.2%,3.74 ± 0.33%,6.98 ± 0.78%,,,,2.05 ± 0.95 nM,−2.94 ± 0.02 (8),1.36 %ID/g,0.71 %ID/g,0.95 %ID/g,0.72 %ID/g,29 %ID/g,5.94 %ID/g,2.85 %ID/g,0.28 %ID/g,0.48 %ID/g,2.31 %ID/g,1.16 %ID/g,6.71 %ID/g,Internalized in relation to 125I-Fc-131 [%] ([1]; 15 min): 71.9 ± 11.4%; Cell-bound [%] ([1]; 15 min): 1.79 ± 0.36%; Internalized [%] ([1]; 15 min): 3.16 ± 0.46%; Internalized in relation to 125I-Fc-131 [%] ([1]; 60 min): 145 ± 19.8%; Cell-bound [%] ([1]; 60 min): 7.02 ± 0.06%; Internalized [%] ([1]; 60 min): 7.10 ± 0.84%; Internalization [% Fc-131] ([1]; 120 min): 221 (120 min) % Fc-131; Internalized in relation to 125I-Fc-131 [%] ([1]; 120 min): 221 ± 23.4%; Cell-bound [%] ([1]; 120 min): 4.25 ± 0.67%; Internalized [%] ([1]; 120 min): 10.8 ± 1.13%
C[C@@H](NC(=O)[C@@H](CCCNC(=N)N)NC(=O)[C@@H](CN)NC(=O)[C@@H](CCCNC(N)=O)NC(=O)[C@@H](CCSC1OC(CO)C(OC2OC(CO)C(O)C(O)C2O)C(O)C1O)NC(=O)[C@@H](CCCNC(N)=O)NC(=O)CS)C(=O)Nc1ccc(C(=O)NCCC[C@@H]2C(=O)N[C@@H](CCCNC(=N)N)C(=O)N[C@@H](Cc3ccc4ccccc4c3)C(=O)NCC(=O)N[C@H](Cc3ccc(O)cc3)C(=O)N2C)cc1 (stereo partly shown) [Tc-CXCR4-12] (I: Mercaptoacetyl-[dCit][d(hCys)](X3)[dCit][dDap][dR][dA][4Abz] / II: cyclo([2Nal]G[dY][dNMeOrn]R); amide I:C-II:4),284 ± 92.3%,8.56 ± 0.66%,9.64 ± 1.31%,,,,4.82 ± 1.36 nM,−2.92 ± 0.06 (8),1.74 %ID/g,0.95 %ID/g,1.14 %ID/g,1.25 %ID/g,35 %ID/g,11 %ID/g,3.96 %ID/g,0.34 %ID/g,0.8 %ID/g,4.72 %ID/g,2.03 %ID/g,7.39 %ID/g,Internalized in relation to 125I-Fc-131 [%] ([1]; 15 min): 192 ± 38.1%; Cell-bound [%] ([1]; 15 min): 3.77 ± 0.83%; Internalized [%] ([1]; 15 min): 3.79 ± 0.69%; Internalized in relation to 125I-Fc-131 [%] ([1]; 60 min): 395 ± 72.2%; Cell-bound [%] ([1]; 60 min): 14.1 ± 0.71%; Internalized [%] ([1]; 60 min): 11.6 ± 2.01%; Internalization [% Fc-131] ([1]; 120 min): 473 (120 min) % Fc-131; Internalized in relation to 125I-Fc-131 [%] ([1]; 120 min): 473 ± 41.9%; Cell-bound [%] ([1]; 120 min): 7.42 ± 2.12%; Internalized [%] ([1]; 120 min): 18.1 ± 0.85%
C[C@@H](NC(=O)[C@@H](CCCNC(=N)N)NC(=O)[C@@H](CN)NC(=O)c1ccc(NN)nc1)C(=O)Nc1ccc(C(=O)NCCC[C@@H]2C(=O)N[C@@H](CCCNC(=N)N)C(=O)N[C@@H](Cc3ccc4ccccc4c3)C(=O)NCC(=O)N[C@H](Cc3ccc(O)cc3)C(=O)N2C)cc1 [Tc-CXCR4-13] (cyclo([dY][dNMeOrn]([4Abz-dA-dR-dDap-HYNIC])R[2Nal]G)),434 ± 18.8%,7.56 ± 0.38%,18.0 ± 0.27%,503 (90 min) % Fc-131,503 ± 16.2%,7.65 ± 0.47%,4.16 ± 1.5 nM,−2.74 ± 0.03 (5),1.56 %ID/g,0.81 %ID/g,0.78 %ID/g,0.57 %ID/g,29.5 %ID/g,2.62 %ID/g,1.94 %ID/g,1.52 %ID/g,0.36 %ID/g,2.43 %ID/g,1.98 %ID/g,8.02 %ID/g,Internalized [%] ([1]; 90 min): 25.5 ± 0.57%
